Literature values as cited in patent publication US20250114332A1 (LABORATORIOS SILANES S.A. DE C.V., priority 2023, published 2025).
Read-outs that look alike come from different tables or passages of the source.

Conditions: drug substance

Row | Biopharmaceutical classification (listed as acetaminophen) | SMILES | Biopharmaceutical classification
1 | group III | CC(=O)Nc1ccc(O)cc1 [Acetaminophen, N-(4-hydroxyphenyl) acetamide] | Group III (high solubility and low permeability)
2 |  | Cc1ccc(-c2cc(C(F)(F)F)nn2-c2ccc(S(N)(=O)=O)cc2)cc1 [Celecoxib] | Belongs to group II (high permeability and low
